Assay results: the OPERA property sets (Mansouri et al. 2018)
Converted amounts (≈) assume the structure as drawn. Where a SMILES comes first, the peptide text is derived from it.

conditions: not given

| solubility [mM] | logP | Structure (SMILES) |
| --- | --- | --- |
| 0.317 (≈ 42.5 µg/mL) | – | Cc1cccc(C(C)C)c1 |
| – | 0 | CCSCCn1cnc2c(=N)n(C)c(=O)[nH]c21 |
| – | 2.01 | CSc1ccc(C(N)=S)cc1 |
| – | 3.46 | CC(C)COC(=O)n1c(-c2cscn2)nc2ccccc21 |
| – | 7.53 | Cc1cc(Cc2cc(Cl)ccc2Cl)c(Cl)cc1Cl |
| – | 0.85 | CCCC(=O)n1ncc2c(O)ncnc21 |
| – | 1.96 | N=C(N)NN=C(c1ccccc1)c1cccs1 |
| – | 2.07 | CCOC(=O)CNC(=O)c1cn(CC)c2nc(C)ccc2c1=O |
| – | 3.94 | CCCC(=O)Oc1c(Br)cc(C#N)cc1Br |
| – | 1.8 | CCCCOC(=O)C(N)Cc1ccc(O)cc1 (stereo unspecified) |
| – | 0.1 | Cc1nc2c(N)ncnc2n1C1OC(CO)CC1F (stereo unspecified) |
| – | 1.46 | Cc1ccc(CN)cc1 |
| – | 1.5 | CSc1ccc2oc(N(N)CCC#N)nc2c1 |
| 4.7e-05 (≈ 0.016 µg/mL) | – | CCCCCCCCCCCCCCCCCCCCCC(=O)O |
| – | -1.14 | CC(=O)N[C@H](C(=O)N[C@@H](C)C(N)=O)C(C)C (Ac-Val-Ala-NH2) |
| – | 1.7 | CC1=CC(=O)CC(C)(C)C1 |
| 1.58e-05 (≈ 0.00484 µg/mL) | – | CCCCCCCCCCCCOC(=O)c1ccc(N)cc1 |
| – | 7.17 | Clc1ccc(Nc2cc3nc4ccccc4n(-c4ccc(Cl)cc4)c-3cc2=NCCCN2CCCC2)cc1 |

| Structure (SMILES) | solubility [mM] | logP |
| --- | --- | --- |
| COc1ccc(C=O)cc1OC | – | 1.22 |
| O=C(O)c1nc(Cl)ccc1Cl | – | 1.06 |
| N=C(N)NN=Cc1ccc(Cl)cc1 | – | 0.96 |
| CN1CC=C(c2ccncc2)CC1 | – | 1.25 |

same assay, conditions: 20 °C

| solubility [mM] | Structure (SMILES) |
| --- | --- |
| 262 (≈ 27500 µg/mL) | C=Cc1ccccn1 |
| 5.24 (≈ 755 µg/mL) | CC(C)COC(=O)C(C)C |
| 3.66 (≈ 600 µg/mL) | NC(=O)c1ccccc1C(N)=O |
| 308 (≈ 33000 µg/mL) | Cc1cncc(C)c1 |
| 13.9 (≈ 2000 µg/mL) | CCCC(CCC)C(=O)O |
| 16.2 (≈ 3200 µg/mL) | CCNc1nc(NCC)nc(OC)n1 |

| Structure (SMILES) | solubility [mM] |
| --- | --- |
| CCc1cccc(C)c1N(C(=O)CCl)C(C)COC (stereo unspecified) | 1.87 (≈ 530 µg/mL) |
| N#Cc1ccncc1 | 384 (≈ 40000 µg/mL) |
| O=C(O)Cc1ccccc1 | 122 (≈ 16600 µg/mL) |
| CCOP(=S)(OCC)ON=C(C#N)c1ccccc1Cl | 0.00511 (≈ 1.7 µg/mL) |

same assay, conditions: 22 °C

| Structure (SMILES) | solubility [mM] |
| --- | --- |
| ClC=CCCl (mixture of isomers) | 14.5 |

same assay, conditions: 22.0 °C

| log10 OH rate constant (cm³/molecule/s) | Structure (SMILES) |
| --- | --- |
| -10.8 | Cc1ccc(C(C)C)cc1 |

same assay, conditions: 23.0 °C

| Structure (SMILES) | log10 OH rate constant (cm³/molecule/s) |
| --- | --- |
| C=C1CCC=C(C)CC[C@@H]2[C@@H]1CC2(C)C | -9.7 |
| O=C/C=C/c1ccccc1 | -10.3 |

same assay, conditions: 24 °C

| Structure (SMILES) | solubility [mM] |
| --- | --- |
| CCCCN(C)N=O | 200 (≈ 23200 µg/mL) |

same assay, conditions: 24.0 °C

| Structure (SMILES) | log10 OH rate constant (cm³/molecule/s) |
| --- | --- |
| c1ccc2c(c1)sc1ccccc12 | -11.1 |
| c1ccc2ncccc2c1 | -10.9 |

same assay, conditions: 25 °C

| Structure (SMILES) | solubility [mM] |
| --- | --- |
| Clc1ccccc1-c1ccccc1 | 0.0256 (≈ 4.83 µg/mL) |
| O=[N+]([O-])c1ccc2ccccc2c1 | 0.0534 (≈ 9.24 µg/mL) |
| c1ccc2ncccc2c1 | 47.3 (≈ 6110 µg/mL) |
| Nc1ccc2cc3ccccc3cc2c1 | 0.00673 (≈ 1.3 µg/mL) |
| CN(C)c1ccc(N=Nc2ccccc2)cc1 | 0.00102 (≈ 0.23 µg/mL) |
| O=[N+]([O-])c1ccccc1 | 17 (≈ 2090 µg/mL) |
| ClC1=C(Cl)[C@]2(Cl)[C@@H]3[C@@H]4C[C@@H]([C@H]5O[C@@H]45)[C@@H]3[C@@]1(Cl)C2(Cl)Cl (single isomer, unassigned) | 0.00058 (≈ 0.221 µg/mL) |
| CCCCC(CC)CO (stereo unspecified) | 6.02 (≈ 785 µg/mL) |
| Cc1cccc(Oc2ccc([N+](=O)[O-])cc2)c1 | 0.0218 (≈ 5 µg/mL) |
| Nc1ccc(Cl)cc1 | 30.6 (≈ 3900 µg/mL) |
| Brc1ccc(I)cc1 | 0.0312 (≈ 8.82 µg/mL) |
| Brc1cc(Br)c(Br)cc1Br | 0.000102 (≈ 0.04 µg/mL) |
| ClC1=C(Cl)C2(Cl)C3C(Cl)C=CC3C1(Cl)C2(Cl)Cl (stereo unspecified) | 0.000482 (≈ 0.18 µg/mL) |
| CCCc1ccc(O)cc1 | 9.38 (≈ 1280 µg/mL) |
| Cc1ccc(C(C)C)cc1 | 0.174 (≈ 23.4 µg/mL) |
| Clc1ccc2ccccc2c1 | 0.0719 (≈ 11.7 µg/mL) |
| Cc1ccc2c(c1N)C(=O)c1ccccc1C2=O | 0.0014 (≈ 0.332 µg/mL) |
| ClCc1ccccc1 | 4.15 (≈ 525 µg/mL) |
| O=C1C2(Cl)C3(Cl)C4(Cl)C(Cl)(Cl)C5(Cl)C3(Cl)C1(Cl)C5(Cl)C24Cl (stereo unspecified) | 0.0055 (≈ 2.7 µg/mL) |
| CCc1ccccc1O | 43.7 (≈ 5340 µg/mL) |
| CCCCOC(=O)c1ccc(C(=O)OCCCC)cc1 | 0.00341 (≈ 0.95 µg/mL) |
| CCCCC(CC)COP(=O)(Oc1ccccc1)Oc1ccccc1 (stereo unspecified) | 0.00524 (≈ 1.9 µg/mL) |
| Nc1ccn([C@H]2CC[C@@H](CO)O2)c(=O)n1 | 362 (≈ 76400 µg/mL) |
| CN(C)c1ccc(N=Nc2ccc(N)cc2)cc1 | 0.0255 (≈ 6.12 µg/mL) |
| Cc1cc(C)c(C)c(O)c1 | 5.59 (≈ 762 µg/mL) |
| CNC(=O)Oc1cc(C)cc(C(C)C)c1 | 0.439 (≈ 91 µg/mL) |
| COc1ccc(C(c2ccc(OC)cc2)C(Cl)(Cl)Cl)cc1 | 0.000289 (≈ 0.1 µg/mL) |
| O=C1OC(=O)c2ccccc21 | 41.9 (≈ 6200 µg/mL) |

same assay, conditions: 25.0 °C

| Structure (SMILES) | log10 OH rate constant (cm³/molecule/s) |
| --- | --- |
| CCOC(=O)NC | -11.1 |
| FC(F)(F)CCC(F)(F)F | -14.1 |
| FC(F)(F)I | -13.3 |
| C=Cc1ccccn1 | -10.2 |
| CC(Br)Br | -12.6 |
| O=C1C=CC(=O)c2ccccc21 | -11.5 |
| CC(=O)O[C@@H]1CC2CCC1(C)C2(C)C (stereo partly specified) | -10.9 |
| O=CC(F)(Cl)Cl | -11.9 |
| ClC(Cl)C(Cl)Cl | -12.6 |
| CCCCl | -12 |
| COC(=O)OC | -12.5 |
| CCCCCCBr | -11.2 |

same assay, conditions: 30 °C

| Structure (SMILES) | solubility [mM] |
| --- | --- |
| CN(C)C | 15100 (≈ 890000 µg/mL) |
| CNC(=O)Oc1cccc(C(C)C)c1 | 0.44 (≈ 85 µg/mL) |
